Measured values published in patent publication US10233426B2, “Method for inducing cardiac differentiation of pluripotent stem cell with low-molecular compounds” (KYOTO UNIVERSITY, priority 2014, dated 2019).

Key:
[1] = test system: cells from suspension or adhesion culture of IMR90-1 under PFCD condition; test: Whole-cell patch clamp electrophysiology of PFCD cardiomyocytes; type: cell-based, human; settings: IMR90-1 PFCD cardiomyocytes, day 30; FIG. 4k
Description: Comparison was made between cells from suspension culture and cells from adhesion culture in terms of electrophysiology of cells by using a whole-cell patch clamp technique. For this purpose, IMR90-1 (from culture on MEF feeder) was suspension or adhesion cultured under PFDC condition. Cells were harvested on day 30 for the analysis. In action potential waveforms in the cells from suspension culture and the cells from adhesion culture, there was no significant difference between the cell populations in terms of RP (resting potential; around −60 mV) (FIGS. 4d and 4e) and APD90 (action potential duration; about 0.7 sec) (FIGS. 4d and 4g). […] ICa (Voltage-gated Ca channel current) was also higher in the cells from suspension culture than the cells from adhesion culture, but the difference was not significant (FIG. 4i). […] IKs (KCQN1 channel current) was higher in the cells from suspension culture than the cells from adhesion culture (FIG. 4j).

[2] = test system: IMR90-1; test: Count of differentiated cardiomyocytes after culture under PFCD condition; type: cell-based, human; settings: IMR90-1, PFCD suspension culture, day 14; FIG. 3d
Description: The differentiated cardiomyocytes was counted in the cell population from suspension or adhesion culture under PFCD condition of the pluripotent stem cell lines. The counts of differentiated cells per 2×10^6 undifferentiated cells are shown in the graph of FIG. 2d. The differentiation was more induced by suspension culture than adhesion culture in most of the stem cell lines. The cell count, as well as the flow cytometry, was taken on day 14.
To determine the contribution of each of the six compounds (CHIR99021, PMA, KY03-I, XAV939, AG1478, and A419259) to PFCD under suspension culture condition, IMR90-1 (from culture on MEF feeder) was cultured in media to which different combinations of five of the compounds were added. Cells from the culture were analyzed by flow cytometry using a cTnT antibody for staining. A part of the cells from culture were not treated with the primary antibody to serve as a negative control. Thirty thousand cells from each sample were loaded to a flow cytometer FACSCantoII.
The differentiated cardiomyocytes was counted in a cultured cell population corresponding to that of FIG. 3c. […] The cell count, as well as the flow cytometry, was taken on day 14.

[3] = test system: mesoderm-related genes (MSGN1, T, MIXL1 and NODAL); test: Quantitative PCR for expression of mesoderm-related genes under PFCD condition; type: cell-based, human; settings: IMR90-1; 2 μM CHIR99021 or 0.3 μM PMA alone, day 0 to day 2; mRNA on day 2; FIG. 3e
Experimental: A human iPS cell line (IMR90-1 cultured on MEF feeder) was cultured in PFCD culture media, to which 2 μM CHIR99021 or 0.3 μM PMA or the both (CHIR99021+PMA) were added for early phase of cardiac differentiation (day 0 to day 2). On day 2, mRNA was extracted the cultured cells and analyzed by quantitative PCR for the expression of mesoderm-related genes (MSGN1, T, MIXL1 and NODAL) (FIG. 3e). As a control, cells were cultured similarly, but with DMSO in place of the test compounds. The gene expression level in the control cells was assigned to one. […] In contrast, the expression of the genes was reduced when PMA was added to the culture. However, the reduction in gene expression by PMA was counteracted and reversed when CHIR99021 was added in combination with PMA (in accordance with the optimal PFCD condition).
A human iPS cell line (IMR90-1 from culture on MEF feeder) was cultured in PFCD media with one of 1 μM XAV939, 0.3 μM A419259, 10 μM AG1478 or 3 μM KY03-I, or all of them (XAV939+A419259+AG1478+KY03-I) in late phase of cardiac differentiation (day 3 to day 4). On day 4, mRNA was extracted from the cultured cells and analyzed by quantitative PCR for the expression of mesoderm-related genes (MSGN1, T, MIXL1 and NODAL) (FIG. 3f).

[4] = test system: monkey ES cell line transfected with an α-MHC promoter-driven GFP gene; settings: culture with PMA (all six compounds); without PMA (other five compounds) only weak fluorescence; FIG. 3a
Description: A monkey ES cell line transfected with an α-MHC promoter-driven GFP gene was suspension cultured under PFCD condition in culture media with PMA (with all the six compounds added) or without PMA (with the five compounds other than PMA added) (FIG. 2a). The cells from the culture with PMA are shown in the left-hand micrographs, and the cells from the culture without PMA are shown in the right-hand micrographs.

[5] = test system: monkey ES cell line transfected with an αMHC promoter-driven GFP gene; test: Chemical screening: GFP fluorometry for cardiac differentiation of monkey ES cells; type: cell-based, cynomolgus monkey; settings: 0.03 to 0.3 μM in early phase, alone or in combination with KY02111 (10 μM in late phase); FIG. 1c

SMILES | increase in APD90, cells from suspension culture compared with cells from adhesion culture [1] | cardiomyocyte count on omission of the compound from the six-compound culture [2] | expression of the mesoderm-related genes (MSGN1, T, MIXL1 and NODAL) vs DMSO control [3] | GFP fluorescence of colonies [4] | increase of cardiac differentiation [5]
Cc1cccc(CCN2CCC(C(=O)c3ccc(NS(C)(=O)=O)cc3)CC2)n1 [E4031] | not significantly different | – | – | – | –
CCS(=O)(=O)N(C)[C@H]1c2cc(C#N)ccc2OC(C)(C)[C@@H]1O [Chromanol293B] | significantly higher | – | – | – | –
Cc1c[nH]c(-c2cnc(NCCNc3ccc(C#N)cn3)nc2-c2ccc(Cl)cc2Cl)n1 [CHIR99021] | – | significant reduction | significantly increased | – | –
CCCCCCCCCCCCCC(=O)O[C@@H]1[C@@H](C)[C@@]2(O)[C@@H](C=C(CO)C[C@]3(O)C(=O)C(C)=C[C@@H]23)[C@@H]2C(C)(C)[C@]12OC(C)=O [PMA, Phorbol 12-myristate 13-acetate] | – | significant reduction | reduced | mostly GFP-positive | three- to eight-fold
